Results taken from PubChem BioAssay AID2060492 (Molecular Pharmacology Branch, DTP, NCI, 2025).

Test system: 695427-040-R-J1-PDC complex spheroids, viability percent T/C
Assay: Anticancer human tumor 695427-040-R-J1-PDC patient-derived colon adenocarcinoma cell line growth inhibition [GQUAD]
Conditions: for IC50: curve of first compound; for viability, T/C: stronger effect = lower value; active = viability on the fitted dose curve at most 10% of control; inactive = the rest
Excerpt: DNA G-quadruplex Stabilizer Agents in Combinations in Complex Spheroids
A high-throughput screen of multi-cell type tumor spheroids was designed to identify active combinations of DNA G-quadruplex stabilizer agents and targeted small molecules. Complex spheroids include a stromal component modeled by human endothelial cells (HUVEC) and fibroblasts modeled by human mesenchymal stem cells (MSCs). The concentration ranges selected for each drug and investigational agent were based upon clinically achievable concentrations if the clinical Cmax of the agent was known.
Compounds. The drugs and investigational agents: pidnarulex (CX-5461; NSC782164), APTO-253 (NSC789042), BRACO-19 (NSC847499), peposertib (NSC802822), ceralasertib (NSC780249), elimusertib (NSC800525), camonsertib (NSC841442), AZD-1390 (NSC803789), olaparib (NSC753686), talazoparib (NSC767125), ART-558 (NSC835418), sotorasib (NSC818433), MRTX-1133 (NSC836407), SN-38 (NSC673596), topotecan (NSC609699), etoposide (NSC141540), doxorubicin (NSC123127), gemcitabine (NSC613327), 5-fluorouracil (NSC19893), paclitaxel (NSC125973), vemurafenib (NSC761431), panobinostat (NSC761190), R-306465 (JNJ-16241199; NSC773264), adavosertib (NSC754352), TP-3654 (NSC805149), carboplatin (NSC241240), KSQ-4279 (NSC840948), and staurosporine (NSC755774) were obtained from the National Cancer Institute (NCI) Developmental Therapeutics Program Chemical Repository (34). The FDA-approved anticancer drug set is available from the NCI Developmental Therapeutics Program. […] The stock solutions were prepared in dimethyl sulfoxide (DMSO, Sigma-Aldrich, St. Louis, MO, cat. D2650) at 800-fold the tested concentration and stored at -70 degrees C prior to their use. All drugs and investigational agents were tested over a range starting from a high concentration at or near the clinical Cmax and decreasing in half-log increments. If the clinical Cmax for an agent had not been determined, the highest concentration tested was 10 microM.
2.3 Cell Culture. All cells were maintained in an incubator at 37 degrees C and 5% CO2 with 95% humidity. The PDC lines were cultured according to standard operating procedures established by the NCI PDMR. All PDCs were thawed and cultured in Matrigel-coated flasks prepared with a working solution of 1X Ham's F-12 nutrient mix, without supplementation (Invitrogen, cat. 11765054), 100 U/mL penicillin-streptomycin (Invitrogen, cat. 15140122), and 2.5% Matrigel (Corning Inc., cat. 354248) for the first three passages. The 857933-349-R-J2-PDC line was cultured in 6C/Colon 1B media, which includes advanced DMEM/F-12 (Thermo Fisher Scientific, cat. 12634028), 10 mM HEPES (Thermo Fisher Scientific, cat. 15630080), 1X GlutaMAX supplement (Thermo Fisher Scientific, cat. 35050061), 0.1 mg/mL primocin (InvivoGen, cat. ant-pm-2), 10% defined fetal bovine serum, heat inactivated (HyClone Laboratories Inc., cat. SH30070.03HI), 50% L-WRN conditioned media (ATCC, cat. CRL-3276), 1.25 mM N-Acetyl-L-cysteine (Sigma-Aldrich, cat. A9165), 10 mM nicotinamide (Sigma-Aldrich, cat. N0636), 1X B-27 supplement (Thermo Fisher Scientific, cat. 17504044), 1X N-2 supplement (Thermo Fisher Scientific, cat. 17502048), 10 microM Y-27632 dihydrochloride (Tocris Bioscience, cat. 1254), and 50 ng/mL human EGF recombinant protein (Thermo Fisher Scientific, cat. PHG0311). The 485176-168-R4-J1-PDC line was cultured in Panc media, which includes all 6C/Colon 1B media components plus 100 ng/mL human FGF-10 (Thermo Fisher Scientific, cat. 100-26), 500 nM SB-431542 (Selleckchem, cat. S1067), and gastrin (Tocris, cat. 3006).
[…]

[1] = second compound 0.0316 µM, first compound 0.0316 µM
[2] = second compound 0.0316 µM, first compound 0.1 µM
[3] = second compound 0.0316 µM, first compound 0.316 µM
[4] = second compound 0.0316 µM, first compound 1 µM
[5] = second compound 0.0316 µM, first compound 3.16 µM
[6] = second compound 0.0316 µM, first compound 10 µM
[7] = second compound 0.1 µM, first compound 0.0316 µM
[8] = second compound 0.1 µM, first compound 0.1 µM
[9] = second compound 0.1 µM, first compound 0.316 µM
[10] = second compound 0.1 µM, first compound 1 µM
[11] = second compound 0.1 µM, first compound 3.16 µM
[12] = second compound 0.1 µM, first compound 10 µM
[13] = second compound 0.316 µM, first compound 0.0316 µM
[14] = second compound 0.316 µM, first compound 0.1 µM
[15] = second compound 0.316 µM, first compound 0.316 µM
[16] = second compound 0.316 µM, first compound 1 µM
[17] = second compound 0.316 µM, first compound 3.16 µM
[18] = second compound 0.316 µM, first compound 10 µM
[19] = second compound 1 µM, first compound 0.0316 µM
[20] = second compound 1 µM, first compound 0.1 µM
[21] = second compound 1 µM, first compound 0.316 µM
[22] = second compound 1 µM, first compound 1 µM
[23] = second compound 1 µM, first compound 3.16 µM
[24] = second compound 1 µM, first compound 10 µM
[25] = second compound 3.16 µM, first compound 0.0316 µM
[26] = second compound 3.16 µM, first compound 0.1 µM
[27] = second compound 3.16 µM, first compound 0.316 µM
[28] = second compound 3.16 µM, first compound 1 µM
[29] = second compound 3.16 µM, first compound 3.16 µM
[30] = second compound 3.16 µM, first compound 10 µM
[31] = second compound 10 µM, first compound 0.0316 µM
[32] = second compound 10 µM, first compound 0.1 µM
[33] = second compound 10 µM, first compound 0.316 µM
[34] = second compound 10 µM, first compound 1 µM
[35] = second compound 10 µM, first compound 3.16 µM
[36] = second compound 10 µM, first compound 10 µM
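Note: spheroids exposed to compounds for seven days before readout.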

C=CCn1c(=O)c2cnc(Nc3ccc(N4CCN(C)CC4)cc3)nc2n1-c1cccc(C(C)(C)O)n1 + Cc1cnc(CNC(=O)c2c(=O)c3ccc(N4CCCN(C)CC4)nc3n3c2sc2ccccc23)cn1
8.26 µM: IC50 (second compound 1 µM)
1.72 µM: IC50 (second compound 0.0316 µM)
2.45 µM: IC50 (second compound 0.1 µM)
inactive: viability, T/C [1] 88.3% | viability, T/C [2] 78.8% | viability, T/C [3] 73.2% | viability, T/C [4] 51.7% | viability, T/C [5] 47% | viability, T/C [6] 41.1% | viability, T/C [7] 79.5% | viability, T/C [8] 71% | viability, T/C [9] 65.2% | viability, T/C [10] 49.4% | viability, T/C [11] 53.8% | viability, T/C [12] 40.8% | viability, T/C [13] 74.8% | viability, T/C [14] 55% | viability, T/C [15] 67.6% | viability, T/C [16] 58.5% | viability, T/C [17] 59.3% | viability, T/C [18] 40.6% | viability, T/C [19] 51.6% | viability, T/C [20] 57.2% | viability, T/C [21] 62% | viability, T/C [22] 43% | viability, T/C [23] 55.2% | viability, T/C [24] 49.5% | viability, T/C [25] 32.3% | viability, T/C [26] 49.6% | viability, T/C [27] 48.6% | viability, T/C [28] 33.4% | viability, T/C [29] 28.8% | viability, T/C [30] 28.6% | viability, T/C [31] 9.19% | viability, T/C [32] 15.3% | viability, T/C [33] 32.1% | viability, T/C [34] 25% | viability, T/C [35] 14.7% | viability, T/C [36] 0.75%
5.16 µM: IC50 (second compound 0.316 µM)
< 0.0316 µM: IC50 (second compound 3.16 µM) | IC50 (second compound 10 µM)

CC(=O)O[C@H]1C(=O)[C@@]2(C)[C@H]([C@H](OC(=O)c3ccccc3)[C@]3(O)C[C@H](OC(=O)[C@H](O)[C@@H](NC(=O)c4ccccc4)c4ccccc4)C(C)=C1C3(C)C)[C@]1(OC(C)=O)CO[C@@H]1C[C@@H]2O + Cc1cnc(CNC(=O)c2c(=O)c3ccc(N4CCCN(C)CC4)nc3n3c2sc2ccccc23)cn1
< 0.0316 µM: IC50 (second compound 3.16 µM) | IC50 (second compound 10 µM)
inactive: viability, T/C [1] 102% | viability, T/C [2] 84.2% | viability, T/C [3] 85.5% | viability, T/C [4] 63.7% | viability, T/C [5] 65% | viability, T/C [6] 54.4% | viability, T/C [7] 90.5% | viability, T/C [8] 82.6% | viability, T/C [9] 91.5% | viability, T/C [10] 57.8% | viability, T/C [11] 71.8% | viability, T/C [12] 66.2% | viability, T/C [13] 80.4% | viability, T/C [14] 76.3% | viability, T/C [15] 62.3% | viability, T/C [16] 62% | viability, T/C [17] 65.7% | viability, T/C [18] 71.3% | viability, T/C [19] 65.3% | viability, T/C [20] 67.5% | viability, T/C [21] 65.9% | viability, T/C [22] 51.3% | viability, T/C [23] 76.5% | viability, T/C [24] 59.5% | viability, T/C [25] 40.7% | viability, T/C [26] 43.6% | viability, T/C [27] 56.9% | viability, T/C [28] 44.3% | viability, T/C [29] 60.4% | viability, T/C [30] 58% | viability, T/C [31] 30.6% | viability, T/C [32] 30% | viability, T/C [33] 43.5% | viability, T/C [34] 43.6% | viability, T/C [35] 44.2% | viability, T/C [36] 24.8%
> 10 µM: IC50 (second compound 0.0316 µM) | IC50 (second compound 0.1 µM) | IC50 (second compound 0.316 µM) | IC50 (second compound 1 µM)

CCCS(=O)(=O)Nc1ccc(F)c(C(=O)c2c[nH]c3ncc(-c4ccc(Cl)cc4)cc23)c1F + Cc1cnc(CNC(=O)c2c(=O)c3ccc(N4CCCN(C)CC4)nc3n3c2sc2ccccc23)cn1
8.41 µM: IC50 (second compound 0.0316 µM)
< 0.0316 µM: IC50 (second compound 10 µM)
active: viability, T/C [30] 0.43% | viability, T/C [36] 0.26%
inactive: viability, T/C [1] 101% | viability, T/C [2] 93.9% | viability, T/C [3] 107% | viability, T/C [4] 96% | viability, T/C [5] 110% | viability, T/C [6] 40.9% | viability, T/C [7] 105% | viability, T/C [8] 70.4% | viability, T/C [9] 78.9% | viability, T/C [10] 82.4% | viability, T/C [11] 98.1% | viability, T/C [12] 52.8% | viability, T/C [13] 85% | viability, T/C [14] 64.3% | viability, T/C [15] 82.9% | viability, T/C [16] 91.3% | viability, T/C [17] 101% | viability, T/C [18] 55.1% | viability, T/C [19] 64.3% | viability, T/C [20] 76.5% | viability, T/C [21] 74.1% | viability, T/C [22] 67.3% | viability, T/C [23] 96.4% | viability, T/C [24] 33% | viability, T/C [25] 43.9% | viability, T/C [26] 42.7% | viability, T/C [27] 55.2% | viability, T/C [28] 63.4% | viability, T/C [29] 52.7% | viability, T/C [31] 32.7% | viability, T/C [32] 34.5% | viability, T/C [33] 38.7% | viability, T/C [34] 34.6% | viability, T/C [35] 22.8%
6.32 µM: IC50 (second compound 1 µM)
3.27 µM: IC50 (second compound 3.16 µM)
> 10 µM: IC50 (second compound 0.1 µM) | IC50 (second compound 0.316 µM)
